In US8486962B2, “Antifungal agents” (F2G Ltd., priority 2005, dated 2013):
Converted amounts (≈) assume the structure as drawn.

Columns and labels:
[1] = tested on: Aspergillus flavus; experiment: MIC, YAG medium, Aspergillus flavus; assay type: cell-based; settings: YAG medium; for MIC: Aspergillus flavus, read-out: MIC A Flavus 01
Outline: (§1)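 Yeast: RPMI + 2% glucose + 0.135M MOPS pH7.0, 1-2×10^3 cfu/ml, 35° C 24-48 h, OD485, MIC at >80% inhib. Aspergillus: YAG (1% glucose, 1% NH4Cl, 0.5% yeast extract), spores 1-2×10^4 cfu/ml, 35° C 24 h, MIC at >70% inhib. Range 50-0.05 mg/L.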

[2] = tested on: Aspergillus fumigatus AF293; experiment: MIC, YAG medium, Aspergillus fumigatus AF293; assay type: cell-based; settings: YAG medium; for MIC: Aspergillus fumigatus, AF293, read-out: MIC A Fum. 293
Outline: as §1

[3] = tested on: Aspergillus niger; experiment: MIC, YAG medium, Aspergillus niger; assay type: cell-based; settings: YAG medium; for MIC: Aspergillus niger, read-out: MIC A Niger 1
Outline: as §1

[4] = tested on: Aspergillus terreus; experiment: MIC, YAG medium, Aspergillus terreus; assay type: cell-based; settings: YAG medium; for MIC: Aspergillus terreus, read-out: MIC A Terreus 4
Outline: as §1

[5] = tested on: Aspergillus fumigatus AF210; experiment: MIC, YAG medium, Aspergillus fumigatus AF210; assay type: cell-based; settings: YAG medium; for MIC: Aspergillus fumigatus, AF210, read-out: MIC A Fum. 210
Outline: as §1

[6] = tested on: A Terreus 49; experiment: MIC, YAG medium, A Terreus 49; assay type: cell-based, Aspergillus terreus; settings: YAG medium; for MIC: Aspergillus terreus, read-out: MIC A Terreus 49
Protocol: Measurement of Minimum Inhibitory Concentrations (MICs)
Between 1 and 5 mgs of compound were accurately weighed out into a sterile Eppendorf tube. The compound was dissolved in DMSO to give a solution containing 5 mg/ml. Tubes were stored at −20° C. until required.
On the day of testing thawed solutions were vortex mixed to ensure homogeneity. 30 μl of solution was removed and added to 570 μl of sterile water in a separate sterile Eppendorf. The thoroughly mixed solution was used to prepare a series of doubling dilutions in water, in a deep well plate. Eleven replicate plates were prepared using a Minitrak by aspirating 20 μl from each well into eleven clear polystyrene 96 well plates.
Spores of Aspergillus spp (Aspergillus fumigatus, Aspergillus terreus, Aspergillus niger and Aspergillus flavus) were harvested from cultures grown on Sabarauds agar for 5 days, and resuspended in PBS/Tween 80 to approx 1×10^7 cfu/ml Other filamentous fungi (Fusarium solani, Scedosporium spp., Trichophyton spp., Absidia corymbifera), were grown on Sabarauds agar for 2-10 days and spores/hyphae resuspended in PBS/Tween to give approx 1×10^7 cfU/ml. Candida species (Candida albicans, Candida glabrata, Candida krusei, Candida parapsilosis and Candida tropicalis) were grown on Sabarauds agar, cells were harvested from the agar using a sterile loop and resuspended in PBS/Tween 80 to approx 1×10^6 cfu/ml. Each organism suspension was diluted in RPMI medium, containing 2% glucose and 0.135M MOPS buffer (pH7.0) to 2×10^4 cfu/ml for Aspergillus spp and other filamentous fungi and 2×10^3 cfu/ml for yeast. 80 μl of an organism suspension was added to each well of the plate containing drug dilutions.
This produced MIC plates with a drug range 50-0.05 mg/L and organism inocula of 1-2×10^4 cfu/ml for Aspergillus spp and other filamentous fungi and 1-2×10^3 cfu/ml for yeasts. All plates were incubated for 24-48 hrs at 35° C. Growth was assessed by monitoring the optical density at 485 nm for each well. The MIC of a compound is the lowest drug concentration that inhibits growth of an organism by >80% compared with a drug free control. MICs are recorded as mg/L. Other growth media can be used for susceptibility testing, and the activity of the described compounds can also be assessed in a medium comprising, 1% glucose, 1% ammonium chloride and 0.5% yeast extract (YAG medium). To perform MIC tests in this medium, dilutions of compounds are prepared in microtitre plates as described above. Fungal strains to be tested are grown and harvested in an identical manner to that described above, each organism suspension is then diluted in YAG medium to 2×10^4 cfu/ml for Aspergillus spp and other filamentous fungi and 2×10^3 cfu/ml for yeast. 80 μl of an organism suspension was added to each well of the plate containing drug dilutions. This produced MIC plates with a drug range 50-0.05 mg/L and organism inocula of 1-2×10^4 cfu/ml for Aspergillus spp and other filamentous fungi and 1-2×10^3 cfu/ml for yeasts. All plates were incubated for 24 hrs at 35° C. Growth was assessed by monitoring the optical density at 485 nm for each well. The MIC of a compound is the lowest drug concentration that inhibits growth of an organism by >70% compared with a drug free control. MICs are recorded as mg/L. In cases where the MIC of an organism is […]0.05 mg/L the MIC is repeated using a concentration range of 0.5-0.0005 mg/L. MIC tests in YAG medium have more clear-cut endpoints and have slightly lower MICS than those performed in RPMI medium.
The following organisms were tested: Aspergillus fumigatus AF293 and Aspergillus fumigatus AF210, Aspergillus niger, Aspergillus terreus, Aspergillus favus, Candida albicans, Candida krusei, Candida tropicalis, Candida glabrata, Candida parapsilosis, Trichophyton rubrum, Trichophyton mentagrophytes, Scedosporium prolificans, Scedosporium apiospermum, Absidia corymbifera, Fusarium solani.

MIC [1] [µg/mL] | MIC [2] [µg/mL] | MIC [3] [µg/mL] | MIC [4] [µg/mL] | MIC [5] [µg/mL] | MIC [6] [µg/mL] | MIC A Flavus 01 [1] [µg/mL] | MIC A Fum. 293 [2] [µg/mL] | MIC A Niger 1 [3] [µg/mL] | MIC A Terreus 4 [4] [µg/mL] | MIC A Fum. 210 [5] [µg/mL] | MIC A Terreus 49 [6] [µg/mL] | SMILES
0.015 (≈ 0.039 µM) | 0.062 (≈ 0.161 µM) | 0.008 (≈ 0.0208 µM) | 0.031 (≈ 0.0806 µM) | 0.062 (≈ 0.161 µM) | 0.015 (≈ 0.039 µM) | – | – | – | – | – | – | COc1ccc(NC(=O)C(=O)c2c(-c3ccccc3C)cc3ccccn23)cc1 [Example 232, N-(4-Methoxy-phenyl)-2-oxo-2-(2-o-tolyl-indolizin-3-yl)-acetamide]
0.008 (≈ 0.0213 µM) | 0.12 (≈ 0.319 µM) | 0.062 (≈ 0.165 µM) | 0.008 (≈ 0.0213 µM) | 0.12 (≈ 0.319 µM) | 0.008 (≈ 0.0213 µM) | – | – | – | – | – | – | COc1ccc(NC(=O)C(=O)c2c(-c3cccs3)cc3ccccn23)cc1 [Example 148, N-(4-Methoxy-phenyl)-2-oxo-2-(2-thiophen-2-yl-indolizin-3-yl)-acetamide]
0.12 (≈ 0.312 µM) | 0.8 (≈ 2.08 µM) | 0.5 (≈ 1.3 µM) | 0.12 (≈ 0.312 µM) | 0.8 (≈ 2.08 µM) | 0.062 (≈ 0.161 µM) | – | – | – | – | – | – | COc1ccc2cc(-c3ccccc3)c(C(=O)C(=O)Nc3ccc(C)cc3)n2c1 [Example 196, 2-(6-Methoxy-2-phenyl-indolizin-3-yl)-2-oxo-N-p-tolyl-acetamide]
– | – | – | – | – | – | 0.015 | 0.062 | 0.015 | 0.008 | 0.12 | 0.004 | CON=C(C)c1ccc(NC(=O)C(=O)c2c(-c3ccccc3)cc3ccccn23)cc1 (mixture of isomers) [Example 243, N-(4-{1-[(E/Z)-Methoxyimino]-ethyl}-phenyl)-2-oxo-2-(2-phenyl-indolizin-3-yl)-acetamide]
0.4 (≈ 0.956 µM) | 6.25 (≈ 14.9 µM) | 0.8 (≈ 1.91 µM) | 0.4 (≈ 0.956 µM) | 3.1 (≈ 7.41 µM) | 0.4 (≈ 0.956 µM) | – | – | – | – | – | – | CS(=O)(=O)c1ccc(NC(=O)C(=O)c2c(-c3ccccc3)cc3ccccn23)cc1 [Example 257, N-(4-Methanesulfonyl-phenyl)-2-oxo-2-(2-phenyl-indolizin-3-yl)-acetamide]

More lines, now with the values behind:

SMILES | MIC [1] [µg/mL] | MIC [2] [µg/mL] | MIC [3] [µg/mL] | MIC [4] [µg/mL] | MIC [5] [µg/mL] | MIC [6] [µg/mL] | MIC A Flavus 01 [1] [µg/mL] | MIC A Fum. 293 [2] [µg/mL] | MIC A Niger 1 [3] [µg/mL] | MIC A Terreus 4 [4] [µg/mL] | MIC A Fum. 210 [5] [µg/mL] | MIC A Terreus 49 [6] [µg/mL]
Cc1ccccc1NC(=O)C(=O)c1c(-c2ccccc2)cc2ccccn12 [Example 202, 2-Oxo-2-(2-phenyl-indolizin-3-yl)-N-o-tolyl-acetamide] | 0.062 (≈ 0.175 µM) | 0.5 (≈ 1.41 µM) | 0.031 (≈ 0.0875 µM) | 0.008 (≈ 0.0226 µM) | 0.25 (≈ 0.705 µM) | 0.015 (≈ 0.0423 µM) | – | – | – | – | – | –
Cc1ccccc1-c1cc2ccccn2c1C(=O)C(=O)Nc1ccc(OCC(F)(F)C(F)F)nc1 [Example 286, 2-Oxo-N-[6-(2,2,3,3-tetrafluoro-propoxy)-pyridin-3-yl]-2-(2-o-tolyl-indolizin-3-yl)-acetamide] | 0.015 (≈ 0.0309 µM) | 0.1 (≈ 0.206 µM) | 0.015 (≈ 0.0309 µM) | 0.1 (≈ 0.206 µM) | 0.1 (≈ 0.206 µM) | 0.015 (≈ 0.0309 µM) | – | – | – | – | – | –
CN(C)Cc1ccc(NC(=O)C(=O)c2c(-c3ccccc3)cc3ccccn23)cc1 [Example 278, N-(4-Dimethylaminomethyl-phenyl)-2-oxo-2-(2-phenyl-indolizin-3-yl)-acetamide] | 6.25 (≈ 15.7 µM) | 25 (≈ 62.9 µM) | 25 (≈ 62.9 µM) | 6.25 (≈ 15.7 µM) | 12.5 (≈ 31.4 µM) | 12.5 (≈ 31.4 µM) | – | – | – | – | – | –
COC(=O)c1csc(NC(=O)C(=O)c2c(-c3ccccc3)cc3ccccn23)c1 [Example 154, 5-[2-Oxo-2-(2-phenyl-indolizin-3-yl)-acetylamino]-thiophene-3-carboxylic acid methyl ester] | 0.25 (≈ 0.618 µM) | 1.6 (≈ 3.96 µM) | 0.05 (≈ 0.124 µM) | 0.8 (≈ 1.98 µM) | 1.6 (≈ 3.96 µM) | 0.12 (≈ 0.297 µM) | – | – | – | – | – | –
